Biological target: Apolipoprotein L1 (Homo sapiens, UniProt O14791)
Experiment: Inhibition of APOL1 G1 variant in human HEK293-T-REx cells measured by Thallium assay
Format: cell-based

Row | IC50 | SMILES
1 | 0.25 nM | C[C@H](NCC1CC(c2c(-c3ccc(F)cc3)[nH]c3c(F)cc(F)cc23)C1)C(=O)N(C)C (some centres undefined)
2 | > 1000 nM | O=C(CC1CC(c2c(-c3ccc(F)cc3)[nH]c3c(F)cc(F)cc23)C1)N[C@H]1CCNC1=O (some centres undefined)
3 | > 1000 nM | O=C(NCC1(CO)COC1)NC[C@H]1C[C@H](c2c(-c3ccc(F)cc3)[nH]c3c(F)cc(F)cc32)C1
4 | > 1000 nM | CC1(NC(=O)NC[C@H]2C[C@H](c3c(-c4ccc(F)cc4)[nH]c4c(F)cc(F)cc43)C2)CCNC1=O (some centres undefined)
5 | > 1000 nM | O=C(NCC1CCNC1=O)NC[C@H]1C[C@H](c2c(-c3ccc(F)cc3)[nH]c3c(F)cc(F)cc32)C1 (some centres undefined)
6 | > 1000 nM | CC(C)(O)CNC(=O)NC[C@H]1C[C@H](c2c(-c3ccc(F)cc3)[nH]c3c(F)cc(F)cc32)C1
7 | > 1000 nM | CNC(=O)N(C)CC1CC(c2c(-c3ccc(F)cc3)[nH]c3c(F)cc(F)cc23)C1 (centres undefined)
8 | > 1000 nM | C[C@H](O)CNC(=O)N(C)CC1CC(c2c(-c3ccc(F)cc3)[nH]c3c(F)cc(F)cc23)C1 (some centres undefined)
9 | > 1000 nM | O=C(NC[C@H]1C[C@H](c2c(-c3ccc(F)cc3)[nH]c3c(F)cc(F)cc32)C1)N[C@H]1C[C@H](O)C1
10 | 0.25 nM | CON(C)C(=O)CNC[C@H]1C[C@H](c2c(-c3ccc(F)cc3)[nH]c3c(F)cc(F)cc32)C1
11 | > 1000 nM | C[C@H](CO)NC(=O)C1CCC(c2c(-c3ccc(F)cc3)[nH]c3c(F)cc(F)cc23)C1 (some centres undefined)
12 | > 1000 nM | C[C@H](CO)NC(=O)CC1CC(c2c(-c3ccc(F)cc3)[nH]c3c(F)cc(F)cc23)C1 (some centres undefined)
13 | 0.25 nM | O=C(NCC(F)F)N1CC(c2c(-c3ccc(F)cc3)[nH]c3c(F)cc(F)cc23)C1
14 | > 1000 nM | COCCNC(=O)CC1CC(c2c(-c3ccc(F)cc3)[nH]c3c(F)cc(F)cc23)C1 (centres undefined)
15 | > 1000 nM | O=C(NC[C@H]1C[C@H](c2c(-c3ccc(F)cc3)[nH]c3c(F)cc(F)cc32)C1)N[C@H]1CC[C@@H]1O
16 | > 1000 nM | O=C(NC[C@H]1C[C@H](c2c(-c3ccc(F)cc3)[nH]c3c(F)cc(F)cc32)C1)N1CCC[C@@H]1CO
17 | > 1000 nM | CC(C)(C)[C@H](CO)NC(=O)NC[C@H]1C[C@H](c2c(-c3ccc(F)cc3)[nH]c3c(F)cc(F)cc32)C1

Row | IC50 | SMILES
18 | 0.25 nM | CCNC(=O)N1CC(c2c(-c3ccc(F)cc3)[nH]c3c(F)cc(F)cc23)C1
19 | > 1000 nM | CC[C@H](CO)NC(=O)NC[C@H]1C[C@H](c2c(-c3ccc(F)cc3)[nH]c3c(F)cc(F)cc32)C1
20 | > 1000 nM | CC(C)NC(=O)CNC[C@H]1C[C@H](c2c(-c3ccc(F)cc3)[nH]c3c(F)cc(F)cc32)C1
21 | > 1000 nM | CC[C@H](NCC1CC(c2c(-c3ccc(F)cc3)[nH]c3c(F)cc(F)cc23)C1)C(=O)NCC(F)(F)F (some centres undefined)
22 | > 1000 nM | CC[C@@H](CO)NC(=O)NC[C@H]1C[C@H](c2c(-c3ccc(F)cc3)[nH]c3c(F)cc(F)cc32)C1
23 | > 1000 nM | O=C(NC[C@H](O)C(F)(F)F)NC[C@H]1C[C@H](c2c(-c3ccc(F)cc3)[nH]c3c(F)cc(F)cc32)C1
24 | > 1000 nM | CC(CO)(CO)NC(=O)NC[C@H]1C[C@H](c2c(-c3ccc(F)cc3)[nH]c3c(F)cc(F)cc32)C1
25 | > 1000 nM | O=C(CC1CC(c2c(-c3ccc(F)cc3)[nH]c3c(F)cc(F)cc23)C1)NC1(CO)CCC1 (centres undefined)
26 | > 1000 nM | NC(=O)C(CC(F)(F)F)NCC1CC(c2c(-c3ccc(F)cc3)[nH]c3c(F)cc(F)cc23)C1 (centres undefined)
27 | 0.25 nM | O=C(CNC[C@H]1C[C@H](c2c(-c3ccc(F)cc3)[nH]c3c(F)cc(F)cc32)C1)NC1CC1
28 | > 1000 nM | CCNC(=O)NC[C@H]1C[C@H](c2c(-c3ccc(F)cc3)[nH]c3c(F)cc(F)cc32)C1
29 | > 1000 nM | C[C@@H](O)CNC(=O)NC[C@H]1C[C@H](c2c(-c3ccc(F)cc3)[nH]c3c(F)cc(F)cc32)C1
30 | 0.25 nM | O=C(CC1CC(c2c(-c3ccc(F)cc3)[nH]c3c(F)cc(F)cc23)C1)NC1(CO)CC1 (centres undefined)
31 | > 1000 nM | O=C(CC1CC(c2c(-c3ccc(F)cc3)[nH]c3c(F)cc(F)cc23)C1)NCCO (centres undefined)
32 | > 1000 nM | CN(CC1CC(c2c(-c3ccc(F)cc3)[nH]c3c(F)cc(F)cc23)C1)C(=O)NCCO (centres undefined)
33 | > 1000 nM | O=C(N[C@H]1CCNC1=O)O[C@H]1C[C@H](c2c(-c3ccc(F)cc3)[nH]c3c(F)cc(F)cc32)C1 (relative stereo)
34 | > 1000 nM | O=C(NC[C@@H](O)C(F)(F)F)NC[C@H]1C[C@H](c2c(-c3ccc(F)cc3)[nH]c3c(F)cc(F)cc32)C1 (relative stereo)

Row | SMILES | IC50
35 | NCC(O)CNC(=O)[C@H]1C[C@H](c2c(-c3ccc(F)cc3)[nH]c3c(F)cc(F)cc32)C1 (some centres undefined) | 0.25 nM
36 | O=C(NC(CO)CO)[C@H]1C[C@H](c2c(-c3ccc(F)cc3)[nH]c3c(F)cc(F)cc32)C1 | < 250 nM
37 | O=C(NC1(CO)CCC1)[C@H]1C[C@H](c2c(-c3ccc(F)cc3)[nH]c3c(F)cc(F)cc32)C1 | < 250 nM
38 | CNC(=O)C(C)NC(=O)[C@H]1C[C@H](c2c(-c3ccc(F)cc3)[nH]c3c(F)cc(F)cc32)C1 (some centres undefined) | 0.25 nM
39 | CC(C)(NC(=O)[C@H]1C[C@H](c2c(-c3ccc(F)cc3)[nH]c3c(F)cc(F)cc32)C1)C(N)=O | 0.25 nM

System: Trypanosoma brucei brucei
Experiment: Antitrypanosomal activity against Trypanosoma brucei brucei assessed as trypanosome lysis using recombinant APOL1 protein G1 variant and measured by Alamar blue based fluoresence assay
Format: functional, organism-based

Row | SMILES | IC50
40 | NCC(O)CNC(=O)[C@H]1C[C@H](c2c(-c3ccc(F)cc3)[nH]c3c(F)cc(F)cc32)C1 (some centres undefined) | 250 nM
41 | O=C(NC(CO)CO)[C@H]1C[C@H](c2c(-c3ccc(F)cc3)[nH]c3c(F)cc(F)cc32)C1 | < 250 nM
42 | O=C(NC1(CO)CCC1)[C@H]1C[C@H](c2c(-c3ccc(F)cc3)[nH]c3c(F)cc(F)cc32)C1 | < 250 nM
43 | CNC(=O)C(C)NC(=O)[C@H]1C[C@H](c2c(-c3ccc(F)cc3)[nH]c3c(F)cc(F)cc32)C1 (some centres undefined) | 250 nM
44 | CC(C)(NC(=O)[C@H]1C[C@H](c2c(-c3ccc(F)cc3)[nH]c3c(F)cc(F)cc32)C1)C(N)=O | < 250 nM
